# Patent publication US20250215397A1, “TWO-DIMENSIONAL CULTURE METHOD HAVING CLEAR CHEMICAL COMPOSITION FOR CULTURING THREE-DIMENSIONAL INTESTINAL ORGANOID-DERIVED INTESTINAL STEM CELL AGGREGATE” (KOREA RESEARCH INSTITUTE OF BIOSCIENCE AND BIOTECHNOLOGY, priority 2022, published 2025)
# Counter-ions that a name gives are not always drawn.
# Assays:
# Type in all cases: cell-based, human
# [1] = system: two-dimensional intestinal stem cell population; test: Subculture of two-dimensional intestinal stem cells, engraftment / cell number; details: for subculture efficiency: added during subculture; for subculture efficiency / cell engraftment during subculture: FIG. 13; for cell engraftment during subculture: treatment during subculture; for need for long-term subculturing: factor removed from culture medium, subculture, FIG. 12
# Method: (§1) The three-dimensional intestinal organoids were isolated from a Matrigel dome and the remaining three-dimensional intestinal organoids were removed as much as possible by pipetting. The separated organoids were placed in 1 ml of 0.25% trypsin-EDTA (TE, Invitrogen) and incubated at 37° C. a water bath for about 5 minutes. Then, pipetting was performed less than five times so that the organoids were allowed to be isolated into single cells and small clumps, and a basal medium was added so that the total volume thereof was 10 ml. The cells fed into a centrifuge were placed on culture dishes coated with feeder cells or 1% of Matrigel (Corning). Thereafter, 200 ng/ml of R-spondin 1 (R&D Systems), 100 ng/ml of EGF (R&D Systems), and 2.5 μM of Postaglandin E2 (Sigma-aldrich) were used as main components, cultured in an intestinal stem cell culture medium (2 mM of L-glutamine, 1% of Penicillin-Streptomycin, and 15 mM of HEPES buffer in Advanced DMEM F12) comprising, as an auxiliary component, one or more selected from the group consisting of 1×B27 (Invitrogen), 80 ng/ml of Noggin (R&D Systems), 10 nM of [Leu15]-Gastrin I (Sigma-aldrich), 100 ng/ml of human recombinant WNT3A (R&D Systems), 500 nM of A-83-01 (Tocris), 10 μM of SB202190 (Sigma-aldrich), 1 mM of N-acetylcysteine (Sigma-aldrich), and 10 mM of nicotinamide (Sigma-aldrich), and subcultured every 7 to 10 days. During the first 2 days of subculture, 1 μM of Jagged-1 (Anaspec) and/or 2.5 μM of Y-27632 (Tocirs) were added to the intestinal stem cell culture medium.
# (§2) The two-dimensional intestinal stem cell population was plated on a culture dish coated with 1% of Matrigel and then cultured for 2 to 7 days. Thereafter, the culture medium was removed, and washing was performed 1 to 2 times with PBS (Sigma-aldrich), and TE (Invitrogen) was added thereto to detach the cells. After centrifugation, a medium was added to isolate the cells into single cells, and then the number of cells was measured using CountessIII cell counter (Thermo Scientific. Inc.).
# [2] = system: two-dimensional intestinal stem cell population; test: Two-dimensional culture of intestinal stem cell population with removal of medium factors or inhibitor treatment; details: for growth of the two-dimensional intestinal stem cell population: treatment with a WNT inhibitor, morphology, FIG. 8; for role of essential culture medium factor (stemness, proliferation, death): presence or absence of each factor, FIGS. 7-10
# Method: as §1
# To measure viability of a two-dimensional intestinal stem cell population cultured in a culture dish coated with 1% of Matrigel, a kit (LIVE/DEAD Viability/Cytotoxicity Kit, Invitrogen) capable of distinguishing and staining surviving cells and dead cells was used. The surviving cells were stained with calcein-AM, and the dead cells were stained with ethidium homodimer-1. The stained cells were observed through a fluorescence microscope (Olympus).
# as §2
# The intestinal stem cell population was fixed with 4% of paraformaldehyde (PFA) and stained with 0.02% of crystal violet solution (Sigma-aldrich) at room temperature for 10 minutes. Thereafter, images were acquired after washing three times with sterile water. A colony size of the intestinal stem cell population was analyzed using Image J software (National Institute of Health).
# [3] = system: two-dimensional intestinal stem cell population; test: Differentiation into 2.5-dimensional intestinal epithelial cells by air-liquid interface culture, medium factor screening; details: minimal medium composition; FIG. 24
# Method: The intestinal stem cells grown to a density of 70 to 80% were washed 1-2 times with PBS, and then treated with TE in an incubator at 37° C. for 5 to 7 minutes. The intestinal stem cells isolated into single cells were collected and then diluted using the hIO medium. The cells were gathered by centrifugation, supernatant was removed, the intestinal stem cell culture medium was added thereto and sufficiently mixed, and then the number of cells was measured using Countess III cell counter (Thermo Scientific. Inc.). 2.5-3.5×10^5 cells were placed in an insert of 12-transwell plate (Corning) coated with 1% of Matrigel, and cultured in an incubator. After the cell density reached 100%, the culture medium of an upper layer was completely removed, and the culture medium of a lower layer was replaced with a differentiation medium (2 mM of L-glutamine, 1% of Penicillin-Streptomycin, and 15 mM of a HEPES buffer in Advanced DMEM F12) comprising 200 ng/ml of R-spondin 1 (R&D Systems), 100 ng/ml of EGF (R&D Systems), 2.5 µM of Prostaglandin E2 (Sigma-aldrich), 10 μM of SB202190 (Sigma-aldrich), and 10 mM of nicotinamide (Sigma-aldrich). Thereafter, once every 2 days, a surface of the upper layer was washed with the PBS or hIO medium, and the lower layer was replaced with a new differentiation medium and cultured for 8 to 12 days.
compound,measurement,setting,value
Jagged-1: Notch activator,subculture efficiency,[1],subculture efficiency is increased
same,cell engraftment during subculture,[1],cell engraftment increases
CCCC(CCC)C(=O)O [valproic acid],subculture efficiency,[1],subculture efficiency is increased
same,cell engraftment during subculture,[1],cell engraftment increases
O=C(NOC[C@H](O)CO)c1ccc(F)c(F)c1Nc1ccc(I)cc1F [PD0325901],cell proliferation of the two-dimensional intestinal stem cell population,"[2]; EGF inhibitor treatment, morphology and live/dead assay, FIG. 9",cell proliferation is inhibited
"C[C@@H](N)[C@H]1CC[C@H](C(=O)Nc2ccncc2)CC1 [Y-27632, R-(+)-trans-4-(1-aminoethyl)-N-(4-pyridyl) cyclohexanecarboxamidedihydrochloridemonohydrate]",subculture efficiency,[1],subculture efficiency is increased
same,cell engraftment during subculture,[1],cell engraftment increases
NC(=O)c1cccnc1 [nicotinamide],effect on differentiation into intestinal epithelial cells,[3],excellent effect on differentiation into intestinal epithelial cells
same,need for long-term subculturing,[1],required to more efficiently perform long-term culturing
Cc1cc(-c2ccc(CC(=O)Nc3ccc(-c4cccnc4)cc3)cc2)ccn1 [WNT-C59],growth of the two-dimensional intestinal stem cell population,[2],growth is inhibited
Cc1cccc(-c2nn(C(=S)Nc3ccccc3)cc2-c2ccnc3ccccc23)n1 [A-83-01],need for long-term subculturing,[1],required to more efficiently perform long-term culturing
CC(=O)N[C@@H](CS)C(=O)O [N-acetylcysteine],need for long-term subculturing,[1],required to more efficiently perform long-term culturing
"CCCCC[C@H](O)/C=C/[C@H]1[C@H](O)CC(=O)[C@@H]1C/C=C\CCCC(=O)O [PGE2, prostaglandin E2]","role of essential culture medium factor (stemness, proliferation, death)",[2],modulate the proliferation of the intestinal stem cell population
same,effect on differentiation into intestinal epithelial cells,[3],excellent effect on differentiation into intestinal epithelial cells
Oc1nc(-c2ccc(C(F)(F)F)cc2)nc2c1CSCC2 [XAV939],growth of the two-dimensional intestinal stem cell population,[2],growth is inhibited
"EGF: receptor tyrosine kinase ligand, epidermal growth factor (NSDSECPLSHDGYCLHDGVCMYIEALDKYACNCVVGYIGERCQYRDLKWWELR; Epidermal growth factor; UniProt P01133 971-1023, looked up)","role of essential culture medium factor (stemness, proliferation, death)",[2],prevent death of intestinal stem cell population and modulate proliferation
same,effect on differentiation into intestinal epithelial cells,[3],excellent effect on differentiation into intestinal epithelial cells
Oc1ccc(-c2nc(-c3ccncc3)c(-c3ccc(F)cc3)[nH]2)cc1 [SB202190],effect on differentiation into intestinal epithelial cells,[3],excellent effect on differentiation into intestinal epithelial cells
same,need for long-term subculturing,[1],required to more efficiently perform long-term culturing
